Results reported in patent US20060241114A1, “Derivatives of azasugars as anticancer agents” (priority 2003, published 2006).

Columns and labels:
[1] = tested on: MCF7 (breast adenocarcinoma); assay: In vitro growth inhibition screen (sulphorhodamine B), MCF7; format: cell-based, human; details: MCF7 cells, incubated for 48 hours, sulphorhodamine B dye; read-out: GI50 (concentration which inhibits the cell growth by 50%), MCF7 Breast adenocarcinoma
Method: (§1) Each agent was tested over a broad concentration range (ten-fold dilutions starting from ≧100 μM to 10 nM) against 6 human cancer cell lines which was comprised of different tumor types. These are DU145 (prostate carcinoma), HT29 (colorectal adenocarcinoma), LOX (melanoma), MCF7 (breast adenocarcinoma), MCF7ADR (adriamycin resistant breast adenocarcinoma), and U251 (human glioblastoma). A standard compound doxorubicin was tested in each assay as a positive control. The cells were maintained in growing condition in RPMI 1640 medium containing 10% fetal calf serum and incubated at 37° C. under 5% CO2 atmosphere. All cell lines were inoculated onto a series of standard 96-well microtitre plate on day zero, followed by twenty four-hour incubation in the absence of test compound. The inoculation densities in the screen were as per Monk et al., (1991) J. Natl. Cancer Inst., 83, 757-766. All NCEs were dissolved in DMSO and diluted further in culture medium. An aliquot of each dilution was added to the growing cells in 96 well plates and incubated for 48 hours. After incubation, the assay was terminated by adding 50 μL of trichloroacetic acid (TCA) and incubating at 4° C. for 30 min. The precipitated cells were washed and stained with sulphorhodamine B dye for 30 min and the excess dye was washed off with acetic acid. Adsorbed dye was solubilised in Tris base (alkaline pH) and quantitated by measuring the OD at […] in ELISA READER. GI50 (concentration which inhibits the cell growth by 50%) was calculated according to Boyd and Paull, (1995) Drug Dev. Res., 34, 91-109.

LOX (melanoma) = assay: In vitro growth inhibition screen (sulphorhodamine B), LOX; format: cell-based, human; details: LOX cells, incubated for 48 hours, sulphorhodamine B dye; read-out: GI50 (concentration which inhibits the cell growth by 50%), LOX Melanoma
Method: as §1

[2] = tested on: U251 (human glioblastoma); assay: In vitro growth inhibition screen (sulphorhodamine B), U251; format: cell-based; details: U251 cells, incubated for 48 hours, sulphorhodamine B dye; read-out: GI50 (concentration which inhibits the cell growth by 50%), U251 Human glioblastoma astrocytoma
Method: as §1

[3] = tested on: DU145 (prostate carcinoma); assay: In vitro growth inhibition screen (sulphorhodamine B), DU145; format: cell-based, human; details: DU145 cells, incubated for 48 hours, sulphorhodamine B dye; read-out: GI50 (concentration which inhibits the cell growth by 50%), DU145 Prostate carcinoma
Method: as §1

[4] = tested on: HT29 (colorectal adenocarcinoma); assay: In vitro growth inhibition screen (sulphorhodamine B), HT29; format: cell-based, human; details: HT29 cells, incubated for 48 hours, sulphorhodamine B dye; read-out: GI50 (concentration which inhibits the cell growth by 50%), HT29 Colorectal adenocarcinoma
Method: as §1

[5] = tested on: MCF7ADR (adriamycin resistant breast adenocarcinoma); assay: In vitro growth inhibition screen (sulphorhodamine B), MCF7ADR; format: cell-based, human; details: MCF7ADR cells, incubated for 48 hours, sulphorhodamine B dye; read-out: GI50 (concentration which inhibits the cell growth by 50%), MCF7ADR Adriamycin Resistant Breast adenocarcinoma
Method: as §1

CCCN1C[C@H](OCc2ccccc2)[C@@H](OCc2ccccc2)[C@H](OCc2ccccc2)[C@H]1CNC(=O)Nc1ccc(F)cc1F [Compound No. 37]
GI50 [1]: 10.3 µM
GI50 (LOX (melanoma)): 5.1 µM
GI50 [2]: 15.4 µM
GI50 [3]: 11.1 µM
GI50 [4]: 2.8 µM
GI50 [5]: 17.3 µM

CCCN1C[C@H](OCc2ccccc2)[C@@H](OCc2ccccc2)[C@H](OCc2ccccc2)[C@H]1CNC(=S)Nc1ccc(Cl)cc1 [Compound No. 39, 2,3,4-Tri-O-benzyl-6-N-{[4-chlorophenyl]aminothiocarbonylamino}-1,5-dideoxy-1,5-imino-N-propyl glucitol]
GI50 [1]: 16.1 µM
GI50 (LOX (melanoma)): 103 µM
GI50 [2]: 31.9 µM
GI50 [3]: 72.7 µM
GI50 [4]: 20.6 µM
GI50 [5]: 52.7 µM

CCCN1C[C@H](OCc2ccccc2)[C@@H](OCc2ccccc2)[C@H](OCc2ccccc2)[C@H]1CNC(=O)Nc1ccc(F)cc1 [Compound No. 40, 2,3,4-Tri-O-benzyl-6-N-{[4-fluorophenyl]aminocarbonylamino}-1,5-dideoxy-1,5-imino-N-propyl glucitol]
GI50 [1]: 9.7 µM
GI50 (LOX (melanoma)): 27.2 µM
GI50 [2]: 20.1 µM
GI50 [3]: 35.7 µM
GI50 [4]: 2 µM
GI50 [5]: 18.4 µM

C=CCN1C(=O)C(OCc2ccccc2)C(OCc2ccccc2)C(OCc2ccccc2)C1COC(=O)Nc1ccc(Cl)cc1 [Compound No. 41, N-Allyl-6-O-(4-chlorophenylcarbamate)-2,3,4-tri-O-benzyl-D-gluco-δ-lactam]
GI50 [1]: 109 µM
GI50 (LOX (melanoma)): > 664 µM
GI50 [2]: > 664 µM
GI50 [3]: 142 µM
GI50 [4]: 71.2 µM
GI50 [5]: > 664 µM

C=CCN1C(=O)[C@H](OCc2ccccc2)[C@@H](OCc2ccccc2)[C@H](OCc2ccccc2)[C@H]1COC(=S)Nc1ccc2ccccc2c1 [Compound No. 42, N-Allyl-2,3,4-Tri-O-benzyl-6-(2-naphthylithiocarbamate)-D-gluco-δ-lactam]
GI50 [1]: 232 µM
GI50 (LOX (melanoma)): > 373 µM
GI50 [2]: > 373 µM
GI50 [3]: 175 µM
GI50 [4]: 103 µM
GI50 [5]: > 373 µM

CCCN1C(=O)[C@H](O)[C@@H](O)[C@H](O)[C@H]1COC(=O)Nc1ccccc1 [Compound No. 43, N-Propyl-6-(phenylcarbamate)-N-propyl-D-gluco-δ-lactam]
GI50 [1]: 115 µM
GI50 (LOX (melanoma)): 161 µM
GI50 [2]: 235 µM
GI50 [3]: 226 µM
GI50 [4]: 208 µM
GI50 [5]: 280 µM

C=CCN1C[C@H](OCc2ccccc2)[C@@H](OCc2ccccc2)[C@H](OCc2ccccc2)[C@H]1COC(=O)Nc1ccc(Cl)cc1 [Compound No. 44, N-Allyl-2,3,4-tri-O-benzyl-6-{p-chlorophenylcarbamate}-1,5-dideoxy-1,5-imino glucitol]
GI50 [1]: 2.3 µM
GI50 (LOX (melanoma)): 8.7 µM
GI50 [2]: 29.8 µM
GI50 [3]: 88.5 µM
GI50 [4]: 29.2 µM
GI50 [5]: 7.5 µM

C=CCN1C(=O)[C@H](OCc2ccccc2)[C@@H](OCc2ccccc2)[C@H](OCc2ccccc2)[C@H]1COC(=O)c1cccs1 [Compound No. 45]
GI50 [1]: 397 µM
GI50 (LOX (melanoma)): > 419 µM
GI50 [2]: > 419 µM
GI50 [3]: 148 µM
GI50 [4]: 92.9 µM
GI50 [5]: > 419 µM

CCCN1C(=O)[C@H](OCc2ccccc2)[C@@H](OCc2ccccc2)[C@H](OCc2ccccc2)[C@H]1CNC(=O)c1cccs1 [Compound No. 46, 2,3,4-Tri-O-benzyl-N-propyl-6-{[2-thiophene]carboxamido}-D-gluco-δ-lactam]
GI50 [1]: 18.4 µM
GI50 (LOX (melanoma)): 178 µM
GI50 [2]: 105 µM
GI50 [3]: 83.8 µM
GI50 [4]: 3.3 µM
GI50 [5]: 83.4 µM

CCCN1C(=O)[C@H](OCc2ccccc2)[C@@H](OCc2ccccc2)[C@H](OCc2ccccc2)[C@H]1CNC(=O)c1ccc(F)cc1F [Compound No. 47, 2,3,4-Tri-O-benzyl-6-N-{[2,4-difluorophenyl]carboxamido}-N-propyl-D-gluco-δ-lactam]
GI50 [1]: 14.7 µM
GI50 (LOX (melanoma)): 51.4 µM
GI50 [2]: 155 µM
GI50 [3]: 153 µM
GI50 [4]: 49.3 µM
GI50 [5]: 68.2 µM

CCCN1C(=O)[C@H](OCc2ccccc2)[C@@H](OCc2ccccc2)[C@H](OCc2ccccc2)[C@H]1CNC(=O)C12CC3CC(CC(C3)C1)C2 [Compound No. 48, 2,3,4-Tri-O-benzyl-6-(adamantanecarboxamido}-N-propyl-D-gluco-δ-lactam]
GI50 [1]: 18.8 µM
GI50 (LOX (melanoma)): 31.8 µM
GI50 [2]: 12.9 µM
GI50 [3]: 104 µM
GI50 [4]: 67.9 µM
GI50 [5]: 58.4 µM

CCCN1C(=O)[C@H](O)[C@@H](O)[C@H](O)[C@H]1CNC(=O)Nc1ccc(F)cc1F [Compound No. 49, 6-N-{[2,4Difluorophenyl]aminocarbonylamino}-N-propyl-D-gluco-δ-lactam]
GI50 [1]: 177 µM
GI50 (LOX (melanoma)): 133 µM
GI50 [2]: 122 µM
GI50 [3]: 352 µM
GI50 [4]: 131 µM
GI50 [5]: 251 µM

CCCN1C(=O)[C@H](O)[C@@H](O)[C@H](O)[C@H]1CNC(=O)C12CC3CC(CC(C3)C1)C2 [Compound No. 50, 6-(Adamantanecarboxamido)-N-propyl-D-gluco-δ-lactam]
GI50 [1]: 82.8 µM
GI50 (LOX (melanoma)): 97.2 µM
GI50 [2]: 144 µM
GI50 [3]: 108 µM
GI50 [4]: 38.1 µM
GI50 [5]: 138 µM

CCCN1C(=O)[C@H](OCc2ccccc2)[C@@H](OCc2ccccc2)[C@H](OCc2ccccc2)[C@H]1CNC(=O)CCl [Compound No. 52, 2,3,4-Tri-O-benzyl-6-N-{2-[chloro]-acetyl}-N-propyl-D-gluco-δ-lactam]
GI50 [1]: 6 µM
GI50 (LOX (melanoma)): 0.9 µM
GI50 [2]: 2.9 µM
GI50 [3]: 7.2 µM
GI50 [4]: 6.8 µM
GI50 [5]: 0.8 µM

CCCN1C(=O)[C@H](OCc2ccccc2)[C@@H](OCc2ccccc2)[C@H](OCc2ccccc2)[C@H]1CNC(=O)Cn1cncn1 [Compound No. 53, 2,3,4-Tri-O-benzyl-N-propyl-6-{2-[triazolyl]-acetyl}-D-gluco-δ-lactam]
GI50 [1]: 6.6 µM
GI50 (LOX (melanoma)): 8.3 µM
GI50 [2]: 12.9 µM
GI50 [3]: 8.8 µM
GI50 [4]: 9.3 µM
GI50 [5]: 10 µM

CCCN1C(=O)[C@H](OCc2ccccc2)[C@@H](OCc2ccccc2)[C@H](OCc2ccccc2)[C@H]1CNC(=O)CN1CCN(c2ncccn2)CC1 [Compound No. 54, 2,3,4-Tri-O-benzyl-6-N-{2-[4-(pyrimidyl)piperazinyl]acetyl}-N-propyl-D-gluco-δ-lactam]
GI50 [1]: 4.1 µM
GI50 (LOX (melanoma)): 2.3 µM
GI50 [2]: 3.2 µM
GI50 [3]: 5 µM
GI50 [4]: 3.6 µM
GI50 [5]: 6.6 µM

CCCN1C(=O)[C@H](OCc2ccccc2)[C@@H](OCc2ccccc2)[C@H](OCc2ccccc2)[C@H]1CNC(=O)CNc1ccc(F)cc1 [Compound No. 55, 2,3,4-Tri-O-benzyl-6-N-{2-[4-fluoroanilino]acetyl}-N-propyl-D-gluco-δ-lactam]
GI50 [1]: 8.2 µM
GI50 (LOX (melanoma)): 3.3 µM
GI50 [2]: 4.1 µM
GI50 [3]: 4.1 µM
GI50 [4]: 4.7 µM
GI50 [5]: 10.2 µM

CCCN1C(=O)[C@H](OCc2ccccc2)[C@@H](OCc2ccccc2)[C@H](OCc2ccccc2)[C@H]1COC(=O)CN1C(=O)CCCC1=O [Compound No. 56, 2,3,4-Tri-O-benzyl-6-{2-[2,6-diketopiperidino]acetyl}-N-propyl-D-gluco-δ-lactam]
GI50 [1]: 40.3 µM
GI50 (LOX (melanoma)): 12 µM
GI50 [2]: 40.5 µM
GI50 [3]: 10.7 µM
GI50 [4]: 22.8 µM
GI50 [5]: 24.5 µM

CCCN1C(=O)[C@H](OCc2ccccc2)[C@@H](OCc2ccccc2)[C@H](OCc2ccccc2)[C@H]1CNC(=O)Cn1ncn(-c2ccc(Cl)cc2)c1=O [Compound No. 57, 2,3,4-Tri-O-benzyl-6-N-{2-[4-chlorophenyl-3-(2H,4H)-1,2,4-triazol-3-onyl]acetyl}-N-propyl-D-gluco-δ-lactam]
GI50 [1]: 20.1 µM
GI50 (LOX (melanoma)): 25.1 µM
GI50 [2]: 154 µM
GI50 [3]: 64.4 µM
GI50 [4]: 22.7 µM
GI50 [5]: 247 µM

CCCN1C(=O)[C@H](OCc2ccccc2)[C@@H](OCc2ccccc2)[C@H](OCc2ccccc2)[C@H]1CNC(=O)CN1CCN(c2ccc(F)cc2)CC1 [Compound No. 58, 2,3,4-Tri-O-benzyl-6-N-{2-[4-(4-fluorophenyl)-piperazin-1-yl]acetyl}-N-propyl-D-gluco-δ-lactam]
GI50 [1]: 8.2 µM
GI50 (LOX (melanoma)): 2.8 µM
GI50 [2]: 13.4 µM
GI50 [3]: 19.4 µM
GI50 [4]: 7.9 µM
GI50 [5]: 10.2 µM
